Read-outs that look alike come from different tables or passages of the source.
Key:
[1] = Stability against deposition of precipitates (visual judgement of the stored processing composition); assay type: physicochemical; set-up: key: the level of conspicuous precipitation was xx; the level of apparent precipitation was x; the level of slight precipitation was Δ; the level of no precipitation but clouding was ◯; the level of complete transparency with neither clouding nor precipitation was ◯◯
[2] = Solubility at the preparation of the additive composition for a fixing solution; assay type: physicochemical; settings: Example 5 additive composition, dissolution aid none
[3] = Example 1 concentrated color developing composition, 15 mmol added, glass bottle, 4 weeks at room temperature
[4] = Example 1 concentrated color developing composition, 15 mmol added, glass bottle, 4 weeks at −5° C.
[5] = Example 2 color developing composition with increased developing agent, 25 mmol added, 4 weeks at room temperature
[6] = Example 2 color developing composition with increased developing agent, 25 mmol added, 4 weeks at −5° C.
[7] = Example 3 fixing composition, 5 mmol added, 4 weeks at room temperature
[8] = Example 3 fixing composition, 5 mmol added, 4 weeks at −5° C.
[9] = Example 4 color developing composition for color negative film, 15 mmol added, 4 weeks at room temperature
[10] = Example 4 color developing composition for color negative film, 15 mmol added, 4 weeks at −5° C.
[11] = Example 5 additive composition, compound 70 mmol, dissolution aid none, −5° C.

SMILES | Evaluation of Deposition (room temperature) [1, 3] | Evaluation of Deposition (−5° C.) [1, 4] | Evaluation of Deposition (room temperature) [1, 5] | Evaluation of Deposition (−5° C.) [1, 6] | Evaluation of Deposition (room temperature) [1, 7] | Evaluation of Deposition (−5° C.) [1, 8] | Evaluation of Deposition (room temperature) [1, 9] | Evaluation of Deposition (−5° C.) [1, 10] | Evaluation of Deposition (−5° C.) [1, 11] | Solubility at the Preparation of Solution ([2]; compound 70 mmol) | Evaluation of Deposition (−5° C.) ([1]; Example 5 additive composition, compound 140 mmol, dissolution aid none, −5° C.) | Solubility at the Preparation of Solution ([2]; compound 140 mmol) | Evaluation of Deposition (room temperature) [1] | Evaluation of Deposition (−5° C.) [1]
O=S(=O)([O-])CCNc1nc(NCC(O)CO)nc(Nc2ccc(Nc3nc(NCCS(=O)(=O)[O-])nc(NCC(O)CO)n3)cc2)n1.[Na+].[Na+] (centres unmarked) [Compound A-2] | ◯◯ | ◯◯ | ◯◯ | ◯◯ | ◯◯ | ◯◯ | ◯◯ | ◯◯ | ◯◯ | Completely | – | – | – | –
O=S(=O)([O-])CCNc1nc(NCC(O)CO)nc(Nc2cccc(Nc3nc(NCCS(=O)(=O)[O-])nc(NCC(O)CO)n3)c2)n1.[Na+].[Na+] (centres unmarked) [Compound A-3] | ◯◯ | ◯◯ | ◯◯ | ◯◯ | ◯◯ | ◯◯ | ◯◯ | ◯◯ | ◯◯ | Completely | ◯◯ | Completely | – | –
COc1cc(Nc2nc(NCCS(=O)(=O)[O-])nc(NCC(O)CO)n2)c(OC)cc1Nc1nc(NCCS(=O)(=O)[O-])nc(NCC(O)CO)n1.[Na+].[Na+] (centres unmarked) [Compound A-7] | – | – | – | – | – | – | – | – | – | – | – | – | ◯◯ | ◯
CC(CO)Nc1nc(NCC(O)CO)nc(Nc2cc(Nc3nc(NCC(O)CO)nc(NC(C)CO)n3)cc(S(=O)(=O)[O-])c2)n1.[Na+] (centres unmarked) [Compound A-23] | – | – | – | – | – | – | – | – | – | – | – | – | ◯◯ | ◯◯ and ◯

Reference: patent US6753425B2, “Photographic processing composition containing bistriazinyl arylenediamine derivative” (Fuji Photo Film Co., Ltd., priority 2000, dated 2004)
